We go through 29 compounds from patent publication US8697739B2, “Bicyclic acetyl-CoA carboxylase inhibitors and uses thereof” (Novartis AG, priority 2010, dated 2014).

pIC50: −log10 of the molar value.

The test deals with T1, human acetyl-CoA carboxylase 2 (ACC2) (Homo sapiens, UniProt O00763).
T1 construct: The cDNA encoding amino acids 144 to 2458 of human acetyl-CoA carboxylase 2; made in house; host or cells: Sf9 insect cells (baculovirus, pFastBac1)
T1 sequence (O00763 144-2458): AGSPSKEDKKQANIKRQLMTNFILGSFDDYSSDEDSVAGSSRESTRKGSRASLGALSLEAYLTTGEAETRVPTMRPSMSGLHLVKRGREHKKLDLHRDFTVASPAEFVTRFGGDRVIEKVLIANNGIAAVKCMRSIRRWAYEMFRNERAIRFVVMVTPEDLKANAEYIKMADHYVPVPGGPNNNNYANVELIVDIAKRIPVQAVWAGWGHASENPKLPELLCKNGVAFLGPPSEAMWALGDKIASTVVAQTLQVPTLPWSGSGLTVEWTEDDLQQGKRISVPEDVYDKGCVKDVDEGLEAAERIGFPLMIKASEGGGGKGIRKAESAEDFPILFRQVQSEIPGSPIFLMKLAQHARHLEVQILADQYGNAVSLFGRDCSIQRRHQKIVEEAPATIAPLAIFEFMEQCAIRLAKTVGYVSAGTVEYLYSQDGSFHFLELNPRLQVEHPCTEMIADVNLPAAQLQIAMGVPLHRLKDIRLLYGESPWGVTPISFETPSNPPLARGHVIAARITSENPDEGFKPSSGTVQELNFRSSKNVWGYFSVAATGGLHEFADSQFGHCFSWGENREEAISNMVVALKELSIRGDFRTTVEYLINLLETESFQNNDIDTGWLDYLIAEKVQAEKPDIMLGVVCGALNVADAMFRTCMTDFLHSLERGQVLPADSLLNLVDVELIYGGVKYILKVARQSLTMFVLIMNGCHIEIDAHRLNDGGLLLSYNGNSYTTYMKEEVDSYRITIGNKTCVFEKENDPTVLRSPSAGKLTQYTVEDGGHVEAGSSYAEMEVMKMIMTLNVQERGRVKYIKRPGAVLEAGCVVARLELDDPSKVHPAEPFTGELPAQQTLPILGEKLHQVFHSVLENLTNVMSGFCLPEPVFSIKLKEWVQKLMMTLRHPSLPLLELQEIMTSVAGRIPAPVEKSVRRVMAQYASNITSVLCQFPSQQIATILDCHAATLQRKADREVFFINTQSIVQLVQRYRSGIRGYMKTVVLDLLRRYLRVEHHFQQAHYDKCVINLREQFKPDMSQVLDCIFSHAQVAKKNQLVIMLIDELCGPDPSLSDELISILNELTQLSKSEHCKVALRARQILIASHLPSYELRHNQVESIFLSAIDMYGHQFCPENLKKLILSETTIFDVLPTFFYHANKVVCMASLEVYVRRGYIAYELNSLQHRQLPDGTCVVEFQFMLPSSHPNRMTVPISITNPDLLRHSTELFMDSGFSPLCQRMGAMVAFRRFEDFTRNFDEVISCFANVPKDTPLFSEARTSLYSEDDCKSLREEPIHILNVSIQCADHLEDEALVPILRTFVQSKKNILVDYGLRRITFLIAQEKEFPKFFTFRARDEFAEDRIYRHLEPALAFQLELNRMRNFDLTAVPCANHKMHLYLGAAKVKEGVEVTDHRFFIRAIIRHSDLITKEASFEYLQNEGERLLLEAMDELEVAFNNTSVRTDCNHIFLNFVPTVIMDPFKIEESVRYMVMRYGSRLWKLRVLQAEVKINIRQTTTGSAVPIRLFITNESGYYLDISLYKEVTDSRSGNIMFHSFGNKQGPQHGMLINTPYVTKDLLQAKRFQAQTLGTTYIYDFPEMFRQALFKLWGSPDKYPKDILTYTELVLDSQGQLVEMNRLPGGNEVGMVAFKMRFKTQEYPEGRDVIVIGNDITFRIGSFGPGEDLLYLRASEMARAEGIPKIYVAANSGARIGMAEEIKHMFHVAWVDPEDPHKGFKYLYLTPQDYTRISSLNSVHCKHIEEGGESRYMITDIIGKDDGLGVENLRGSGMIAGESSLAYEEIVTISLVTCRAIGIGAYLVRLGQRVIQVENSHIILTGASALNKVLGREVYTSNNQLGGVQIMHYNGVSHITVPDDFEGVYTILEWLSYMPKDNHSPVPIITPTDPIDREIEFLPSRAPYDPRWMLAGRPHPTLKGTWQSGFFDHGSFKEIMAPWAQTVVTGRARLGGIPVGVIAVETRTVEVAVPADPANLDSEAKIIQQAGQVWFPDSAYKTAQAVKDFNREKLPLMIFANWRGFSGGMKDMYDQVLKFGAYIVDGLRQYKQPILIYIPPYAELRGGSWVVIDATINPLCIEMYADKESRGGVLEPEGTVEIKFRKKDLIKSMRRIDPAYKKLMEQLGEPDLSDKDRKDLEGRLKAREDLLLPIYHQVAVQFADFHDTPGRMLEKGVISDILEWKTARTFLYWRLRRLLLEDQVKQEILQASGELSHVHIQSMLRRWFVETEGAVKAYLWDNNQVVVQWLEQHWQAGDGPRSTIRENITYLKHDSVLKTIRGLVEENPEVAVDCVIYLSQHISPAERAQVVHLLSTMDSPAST
Description: Acetyl-CoA carboxylase enzyme assay (malonyl-CoA formation by LC/MS/MS). The test is classed as biochemical. The note with it: recombinant human ACC2 (aa 144-2458); read-out: IC50 ACC2. A digest of the protocol: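 Malonyl-CoA formation was read by LC/MS/MS MRM against a [13C3]-malonyl-CoA internal standard, after acetic acid quench. The enzyme was baculovirus/Sf9-expressed human ACC2 residues 144–2458, given 15 minutes room-temperature compound preincubation in HEPES pH 7.5 buffer with MgCl2, citrate and DTT. Substrate solution held 50 μM acetyl-CoA, 120 μM ATP and 2 mM KHCO3.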
`O=C(NCc1cccnc1)[C@H]1CC[C@H](NS(=O)(=O)c2ccc3[nH]c(-c4ccccc4)nc3c2)CC1` [Example 640, (1r,4r)-4-(2-phenyl-1H-benzo[d]imidazole-5-sulfonamido)-N-(pyridin-3-ylmethyl)cyclohexanecarboxamide]: the pIC50 (as a rule, the negative decadic logarithm of the IC50, by convention in mol/L) is 6.02.

For the compound `O=C(NCC1CCCCCC1)[C@H]1CC[C@H](NS(=O)(=O)c2ccc3[nH]c(-c4ccccc4)nc3c2)CC1` [Example 641, (1r,4r)-N-(cycloheptylmethyl)-4-(2-phenyl-1H-benzo[d]imidazole-5-sulfonamido)cyclohexanecarboxamide], the pIC50 is 6.56.

`COCCCNC(=O)[C@H]1CC[C@H](NS(=O)(=O)c2ccc3[nH]c(-c4ccccc4)nc3c2)CC1` [Example 642, (1r,4r)-N-(3-methoxypropyl)-4-(2-phenyl-1H-benzo[d]imidazole-5-sulfonamido)cyclohexanecarboxamide]: the pIC50 was 5.87.

As to `O=C(NCCc1cccnc1)[C@H]1CC[C@H](NS(=O)(=O)c2ccc3[nH]c(-c4ccccc4)nc3c2)CC1` [Example 643, (1r,4r)-4-(2-phenyl-1H-benzo[d]imidazole-5-sulfonamido)-N-(2-(pyridin-3-yl)ethyl)cyclohexanecarboxamide], the negative logarithm of the IC50 (pIC50) was 6.55.

Turning to `O=C(NCc1cc(F)cc(F)c1)[C@H]1CC[C@H](NS(=O)(=O)c2ccc3[nH]c(-c4ccccc4)nc3c2)CC1` [Example 644, (1r,4r)-N-(3,5-difluorobenzyl)-4-(2-phenyl-1H-benzo[d]imidazole-5-sulfonamido)cyclohexanecarboxamide], the pIC50 is 6.23.

Regarding `O=C(Nc1cccc2ccccc12)[C@H]1CC[C@H](NS(=O)(=O)c2ccc3[nH]c(-c4ccccc4)nc3c2)CC1` [Example 645, (1r,4r)-N-(naphthalen-1-yl)-4-(2-phenyl-1H-benzo[d]imidazole-5-sulfonamido)cyclohexanecarboxamide], the pIC50 is 5.97.

Turning to `O=C(Nc1cc(F)cc(F)c1)[C@H]1CC[C@H](NS(=O)(=O)c2ccc3[nH]c(-c4ccccc4)nc3c2)CC1` [Example 646, (1r,4r)-N-(3,5-difluorophenyl)-4-(2-phenyl-1H-benzo[d]imidazole-5-sulfonamido)cyclohexanecarboxamide], the negative-log IC50 (pIC50) is 5.87.

On to `O=C(Nc1ccc2ncccc2c1)[C@H]1CC[C@H](NS(=O)(=O)c2ccc3[nH]c(-c4ccccc4)nc3c2)CC1` [Example 647, (1r,4r)-4-(2-phenyl-1H-benzo[d]imidazole-5-sulfonamido)-N-(quinolin-6-yl)cyclohexanecarboxamide], for which the negative-log IC50 (pIC50) is 6.14.

Consider `O=C(Nc1cccc(C(F)(F)F)c1)[C@H]1CC[C@H](NS(=O)(=O)c2ccc3[nH]c(-c4ccccc4)nc3c2)CC1` [Example 648, (1r,4r)-4-(2-phenyl-1H-benzo[d]imidazole-5-sulfonamido)-N-(3-(trifluoromethyl)phenyl)cyclohexanecarboxamide], for which the pIC50 is 5.74.

In the case of `O=C(Nc1cccnc1)[C@H]1CC[C@H](NS(=O)(=O)c2ccc3[nH]c(-c4ccccc4)nc3c2)CC1` [Example 649, (1r,4r)-4-(2-phenyl-1H-benzo[d]imidazole-5-sulfonamido)-N-(pyridin-3-yl)cyclohexanecarboxamide], the pIC50 is 6.41.

As for `O=C([C@H]1CC[C@H](NS(=O)(=O)c2ccc3[nH]c(-c4ccccc4)nc3c2)CC1)N1CCOCC1` [Example 650, N-((1r,4r)-4-(morpholine-4-carbonyl)cyclohexyl)-2-phenyl-1H-benzo[d]imidazole-5-sulfonamide], the pIC50 was 6.52.

As for `CC(C)(C)c1nnc([C@H]2CC[C@H](NS(=O)(=O)c3ccc4[nH]c(C5CC5)nc4c3)CC2)o1` [Example 651, N-((1r,4r)-4-(5-tert-butyl-1,3,4-oxadiazol-2-yl)cyclohexyl)-2-cyclopropyl-1H-benzo[d]imidazole-5-sulfonamide], the negative logarithm of the IC50 (pIC50) was 5.20.

Regarding `COC(=O)c1ccc(-c2nc3cc(S(=O)(=O)N[C@H]4CC[C@H](c5nnc(C(C)(C)C)o5)CC4)ccc3[nH]2)cc1` [Example 652, methyl 4-(5-(N-((1r,4r)-4-(5-tert-butyl-1,3,4-oxadiazol-2-yl)cyclohexyl)sulfamoyl)-1H-benzo[d]imidazol-2-yl)benzoate], the pIC50 is 6.06.

In the case of `CC(C)(C)c1nnc([C@H]2CC[C@H](NS(=O)(=O)c3ccc4[nH]c(-c5cccnc5)nc4c3)CC2)o1` [Example 653, N-((1r,4r)-4-(5-tert-butyl-1,3,4-oxadiazol-2-yl)cyclohexyl)-2-(pyridin-3-yl)-1H-benzo[d]imidazole-5-sulfonamide], the pIC50 is 5.69.

`CC(C)(C)c1nnc([C@H]2CC[C@H](NS(=O)(=O)c3ccc4[nH]c(Nc5cccnc5)nc4c3)CC2)o1` [Example 654, N-((1r,4r)-4-(5-tert-butyl-1,3,4-oxadiazol-2-yl)cyclohexyl)-2-(pyridin-3-ylamino)-1H-benzo[d]imidazole-5-sulfonamide]: the pIC50 was 6.80.

Regarding `CC(C)(C)c1nnc([C@H]2CC[C@H](NS(=O)(=O)c3ccc4[nH]c(-c5ccc(N6CCNCC6)cc5)nc4c3)CC2)o1` [Example 655, N-((1r,4r)-4-(5-tert-butyl-1,3,4-oxadiazol-2-yl)cyclohexyl)-2-(4-(piperazin-1-yl)phenyl)-1H-benzo[d]imidazole-5-sulfonamide], the negative-log IC50 (pIC50) is 6.85.

On to `CC(C)(C)c1nnc([C@H]2CC[C@H](NS(=O)(=O)c3ccc4[nH]c(-c5ccc(C(=O)O)cc5)nc4c3)CC2)o1` [Example 656, 4-(5-(N-((1r,4r)-4-(5-tert-butyl-1,3,4-oxadiazol-2-yl)cyclohexyl)sulfamoyl)-1H-benzo[d]imidazol-2-yl)benzoic acid], for which the pIC50 is 6.06.

`Cc1nc2cc(S(=O)(=O)N[C@H]3CC[C@H](c4nnc(C(C)(C)C)o4)CC3)ccc2n1Cc1ccccc1` [Example 657, 1-benzyl-N-((1r,4r)-4-(5-tert-butyl-1,3,4-oxadiazol-2-yl)cyclohexyl)-2-methyl-1H-benzo[d]imidazole-5-sulfonamide]: the pIC50 was below 4.46.

For `Cc1nc2ccc(S(=O)(=O)N[C@H]3CC[C@H](C(=O)N4CCOCC4)CC3)cc2s1` [Example 658, 2-methyl-N-((1r,4r)-4-(morpholine-4-carbonyl)cyclohexyl)benzo[d]thiazole-6-sulfonamide], the negative-log IC50 (pIC50) was 4.14.

On to `C[C@@H](NC(=O)[C@H]1CC[C@H](NS(=O)(=O)c2ccc3[nH]c(=O)oc3c2)CC1)c1ccc(F)cc1` [Example 659, (1r,4R)-N-((R)-1-(4-fluorophenyl)ethyl)-4-(2-oxo-2,3-dihydrobenzo[d]oxazole-6-sulfonamido)cyclohexanecarboxamide], for which the pIC50 was 6.42.

On to `Cc1nc2ccc(S(=O)(=O)N[C@H]3CC[C@H](C(=O)N[C@H](C)c4ccc(F)cc4)CC3)cc2s1` [Example 660, (1r,4R)-N-((R)-1-(4-fluorophenyl)ethyl)-4-(2-methylbenzo[d]thiazole-6-sulfonamido)cyclohexanecarboxamide], for which the pIC50 was 6.62.

Take `C[C@@H](NC(=O)[C@H]1CC[C@H](NS(=O)(=O)c2ccc3c(c2)OCO3)CC1)c1ccc(F)cc1` [Example 661, (1r,4R)-4-(benzo[d][1,3]dioxole-5-sulfonamido)-N-((R)-1-(4-fluorophenyl)ethyl)cyclohexanecarboxamide]: the pIC50 is 6.13.

Turning to `C[C@@H](NC(=O)[C@H]1CC[C@H](NC(=O)c2ccc3[nH]c(-c4ccccc4)nc3c2)CC1)c1ccc(F)cc1` [Example 662, N-((1R,4r)-4-((R)-1-(4-fluorophenyl)ethylcarbamoyl)cyclohexyl)-2-phenyl-1H-benzo[d]imidazole-5-carboxamide], the negative logarithm of the IC50 (pIC50) was 4.49.

`Cc1nc2cc(S(=O)(=O)N[C@H]3CC[C@H](C(=O)N[C@H](C)c4ccc(F)cc4)CC3)ccc2[nH]1` [Example 663, (1r,4R)-N-((R)-1-(4-fluorophenyl)ethyl)-4-(2-methyl-1H-benzo[d]imidazole-5-sulfonamido)cyclohexanecarboxamide]: the pIC50 is 6.60.

Regarding `C[C@@H]1CN(C(=O)[C@H]2CC[C@H](NS(=O)(=O)c3ccc4[nH]c(-c5ccccc5)nc4c3)CC2)C[C@H](C)O1` [Example 664, N-((1R,4r)-4-((2S,6R)-2,6-dimethylmorpholine-4-carbonyl)cyclohexyl)-2-phenyl-1H-benzo[d]imidazole-5-sulfonamide], the pIC50 is 7.27.

On to `C[C@H]1C[C@H](C)CN(C(=O)[C@H]2CC[C@H](NS(=O)(=O)c3ccc4[nH]c(-c5ccccc5)nc4c3)CC2)C1` [Example 665, N-((1S,4r)-4-((3S,5S)-3,5-dimethylpiperidine-1-carbonyl)cyclohexyl)-2-phenyl-1H-benzo[d]imidazole-5-sulfonamide], for which the pIC50 is 7.40.

Turning to `C[C@@H]1C[C@H](C)CN(C(=O)[C@H]2CC[C@H](NS(=O)(=O)c3ccc4[nH]c(-c5ccccc5)nc4c3)CC2)C1` [Example 666, N-((1R,4r)-4-((3S,5R)-3,5-dimethylpiperidine-1-carbonyl)cyclohexyl)-2-phenyl-1H-benzo[d]imidazole-5-sulfonamide], the pIC50 is 7.52.

As to `CCOC(=O)Cc1nc2cc(S(=O)(=O)N[C@H]3CC[C@H](C(=O)N[C@H](C)c4ccc(F)cc4)CC3)ccc2[nH]1` [Example 667, ethyl 2-(5-(N-((1R,4r)-4-((R)-1-(4-fluorophenyl)ethylcarbamoyl)cyclohexyl)sulfamoyl)-1H-benzo[d]imidazol-2-yl)acetate], the pIC50 was 6.21.

Consider `C[C@@H](NC(=O)[C@H]1CC[C@H](NS(=O)(=O)c2ccc3[nH]c(CC(=O)O)nc3c2)CC1)c1ccc(F)cc1` [Example 668, 2-(5-(N-((1R,4r)-4-((R)-1-(4-fluorophenyl)ethylcarbamoyl)cyclohexyl)sulfamoyl)-1H-benzo[d]imidazol-2-yl)acetic acid], for which the pIC50 is 6.91.
